Test results taken from PMC8695447, “Novel Small Molecules Capable of Blocking mtRAS-Signaling Pathway” (Frontiers in Oncology, 2021).

Legend:
[1] = tested on: Ba/F3-NRAS-G12D cells; assay: Anti-proliferation assay (CellTiter Glo) on Ba/F3-NRAS-G12D; type: cell-based; conditions: Mus musculus, BaF3; 72 h treatment; average with SD (n = 3, duplicate)
Method: (§1) Ba/F3-parental, OCI-AML3, U397 cells were purchased from DSMZ. MDA-MB-231, HCT-116, AsPC-1, H358, HT-29, SW480, and DU-145 cells were obtained from KCLB. MDA-MB-468 cells were obtained from ATCC. All cells were maintained in RPMI with 10% FBS and antibiotics. Cells were grown in a humidified 5% CO2 incubator at 37°C. Ba/F3-parental cells were grown in the presence of 10 ng/ml IL-3. NRAS-G12D or NRAS-G12V transformed Ba/F3 cell lines (Ba/F3-NRAS-G12D, and Ba/F3-NRAS-G12V, respectively) were cultured without IL-3, which were established by the procedure described as previously ([30]).
(§2) Approximately 3.0 × 10^3 cells/well were seeded in a 96-well cell culture plate. After stabilization, 1/3 serially diluted compound in DMSO was treated to the cell. […] All GI50 values were obtained in duplicate with three independent assays and averages with standard deviation are presented.

[2] = tested on: Ba/F3-parental cells; assay: Anti-proliferation assay (CellTiter Glo) on Ba/F3-parental; type: cell-based; conditions: Mus musculus, BaF3; 72 h treatment; with 10 ng/ml IL-3; average with SD (n = 3, duplicate)
Method: as §1, §2

[3] = tested on: AsPC-1 (KRAS-G12D); assay: Anti-proliferation assay on AsPC-1; type: cell-based; conditions: Homo sapiens, ASPC1; 72 h treatment; average with SD (n = 3, duplicate)
Method: as §1, §2

[4] = tested on: HT-29 (KRAS-Q61L); assay: Anti-proliferation assay on HT-29; type: cell-based; conditions: Homo sapiens, HT-29; 72 h treatment; average with SD (n = 3, duplicate)
Method: as §1, §2

[5] = tested on: OCI-AML3 (NRAS-Q61L); assay: Anti-proliferation assay on OCI-AML3; type: cell-based, human; conditions: Homo sapiens, OCI-AML-3; 72 h treatment; average with SD (n = 3, duplicate)
Method: as §1, §2

[6] = tested on: MDA-MB-468 (KRAS, NRAS-wt); assay: Anti-proliferation assay on MDA-MB-468; type: cell-based; conditions: for GI50: Homo sapiens, MDA-MB-468, 72 h treatment, average with SD (n = 3, duplicate); for antiproliferative activity fold lower on MDA-MB-468 cells than on HCT-116 harboring KRAS-G13D mutation: MDA-MB-468 versus HCT-116; for times less active on MDA-MB-468 cells harboring wtRAS than on SW480 cells with KRAS-G12V mutation: MDA-MB-468 versus SW480
Method: as §1, §2

[7] = tested on: Ba/F3-NRAS-G12D and Ba/F3-NRAS-G12V cells; assay: Flow cytometry apoptosis analysis (annexin V/PI), Ba/F3 mtRAS cells; type: cell-based; conditions: 1 μM, 24 h
Method: (§3) For apoptosis analysis, cells (1 × 10^6 cells per sample) were incubated with each compounds for 24 h. Cells were subjected to brief ice-cold PBS washing and subjected to staining with Alexafluor488-conjugated annexin V (Thermo Fisher, A13201), and propidium iodide (PI, Thermo Fisher, P3560). Thereafter, apoptotic cells were classified by FACS Accuri™ C6 Plus (BD Biosciences). Debris and unstained cells and were excluded by gating.
Figure 3 (A, B) The effects of SIJ1795 and SIJ1772 on apoptosis induction in Ba/F3 cells transformed with mtRAS (NRAS-G12D and NRAS-G12V). Cells were treated with 0.1 and 1 μM of SIJ1795, SIJ1772, and GNF-7 for 24 h Western blot analysis was conducted to evaluate the cleaved PARP and level. GAPDH was used as a loading control. (C) Apoptotic cell population (annexin V-positive) was determined by flow cytometry analysis (n = 3). Cells were treated with 1 μM of indicated compounds for 24 h. Statistical significance was calculated by a one-way ANOVA analysis (**p < 0.01, ***p < 0.001).

[8] = tested on: cancer cells harboring mtRAS; assay: Flow cytometry apoptosis analysis (annexin V/PI), cancer cells harboring mtRAS; type: cell-based; conditions: 1 μM, 24 h
Method: as §3
Figure 4 The effects of (A) SIJ1795 and (B) SIJ1772 on apoptosis induction in cancer cells harboring mtRAS. Cells were treated with 0.1 and 1 μM of SIJ1795 SIJ1772, and GNF-7 for 24 h. Western blot analysis was conducted to evaluate the cleaved PARP and level. GAPDH was used as a loading control. (C) Apoptotic cell population (annexin V-positive) was determined by flow cytometry analysis (n = 3). Cells were treated with 1 μM of indicated compounds for 24 h. Statistical significance was determined using a one-way ANOVA analysis (*p < 0.05, **p < 0.01, ***p < 0.001).

| GI50 [1] | GI50 [3] | GI50 [4] | GI50 [5] | GI50 [6] | SMILES | GI50 [2] | antiproliferative activity fold lower on MDA-MB-468 cells than on HCT-116 harboring KRAS-G13D mutation [6] | times less active on MDA-MB-468 cells harboring wtRAS than on SW480 cells with KRAS-G12V mutation [6] | apoptotic cells population (annexin V/PI) in Ba/F3-NRAS-G12D and Ba/F3-NRAS-G12V cells [7] | apoptosis against cancer cells harboring mtRAS (annexin V/PI) [8] |
| --- | --- | --- | --- | --- | --- | --- | --- | --- | --- | --- |
| 77 ± 16 nM | 170 ± 32 nM | 192 ± 94 nM | 65 ± 29 nM | 44900 ± 6260 nM | Cc1ccc(NC(=O)c2cccc(C(F)(F)F)c2)cc1N1Cc2cnc(Nc3cnn(C4CCN(S(C)(=O)=O)CC4)c3)nc2N(C)C1=O [SIJ1772, N-(4-Methyl-3-(1-methyl-7-((1-(1-(methylsulfonyl)piperidin-4-yl)-1H-pyrazol-4-yl)amino)-2-oxo-1,4-dihydropyrimido[4,5-d]pyrimidin-3(2H)-yl)phenyl)-3-(trifluoromethyl)benzamide] | 1920 ± 86 nM | 1182 fold | 101 times | increase of apoptotic cells | induced apoptosis |
| 82 ± 31 nM | 144 ± 23 nM | 154 ± 42 nM | 52 ± 52 nM | 15700 ± 5310 nM | CCN1CCN(c2cccc(Nc3ncc4c(n3)N(C)C(=O)N(c3cc(NC(=O)c5cccc(C(F)(F)F)c5)ccc3C)C4)c2)CC1 [SIJ1795, N-(3-(7-((3-(4-Ethylpiperazin-1-yl)phenyl)amino)-1-methyl-2-oxo-1,4-dihydropyrimido[4,5-d]pyrimidin-3(2H)-yl)-4-methylphenyl)-3-(trifluoromethyl)benzamide] | 2020 ± 419 nM | 476 fold | 64 times | increase of apoptotic cells | induced apoptosis |
